# In paper PMC12048447, “PANTAX: a phase Ib clinical trial of the efflux pump inhibitor SCO-101 in combination with gemcitabine and nab-paclitaxel in non-resectable or metastatic pancreatic cancer” (Investigational New Drugs, 2025):
# Assay: PANTAX phase Ib: safety, DLT and MTD of SCO-101 with Gem and Nab
# Assay type: in vivo
# Experimental: ORR, clinical benefit rate (CBR), median progression free survival (mPFS), and mOS were included as secondary end points.
# Patients were recruited at four centers, two in Denmark and two in Germany.
# Study treatment is illustrated in Fig. 1. […] Chemotherapy with Gem and Nab was given days 6, 13, and 20 in each cycle. […] During the first cycle, patients received treatment with chemotherapy at a dose corresponding to 80% of the recommended dose, i.e., 100 mg/m^2 Nab and 800 mg/m^2 Gem given as infusions over 30 min. […] The dose of chemotherapy was further adjusted to the patient´s tolerability in accordance with the chemotherapy-product monographs. Standard antiemetics were allowed as was the use of granulocyte colony-stimulating factor (G-CSF) in case of treatment-induced neutropenia.
# Toxicity was assessed at baseline and weekly at days 1, 6, 13, and 20 before each treatment.
# [1] = 50 mg SCO-101 (cohort 1, 3 patients) + Gem/Nab, any CTC-AE grade
# [2] = 50 mg SCO-101 (cohort 1, 3 patients) + Gem/Nab, grade ≥ 3
# [3] = 100 mg SCO-101 (cohort 2, 3 patients) + Gem/Nab, any CTC-AE grade
# [4] = 150 mg SCO-101 (cohort 3, 6 patients) + Gem/Nab, any CTC-AE grade
# [5] = 150 mg SCO-101 (cohort 3, 6 patients) + Gem/Nab, grade ≥ 3
# [6] = 200 mg SCO-101 (cohort 4, 6 patients) + Gem/Nab, any CTC-AE grade
# [7] = 250 mg SCO-101 (cohort 5, 4 patients) + Gem/Nab, any CTC-AE grade
# [8] = 250 mg SCO-101 (cohort 5, 4 patients) + Gem/Nab, grade ≥ 3
# [9] = 22 patients, all dose levels, with Gem and Nab
# [10] = sum of cohorts (22 patients) + Gem/Nab, any CTC-AE grade
# [11] = sum of cohorts (22 patients) + Gem/Nab, grade ≥ 3
compound,measurement,setting,value
O=C(Nc1cc(C(F)(F)F)cc(C(F)(F)F)c1)Nc1ccc(Br)cc1-c1nnn[nH]1 [SCO-101],"Alopecia, patients with treatment-related AE",[1],2
same,"Athralgia, patients with treatment-related AE",[1],1
same,"Chills, patients with treatment-related AE",[1],1
same,"Diarrhea, patients with treatment-related AE",[1],3
same,"Dizziness, patients with treatment-related AE",[1],1
same,"Fatigue, patients with treatment-related AE",[1],3
same,"Headache, patients with treatment-related AE",[1],1
same,"Hypertension, patients with treatment-related AE",[1],1
same,"Nail disorder, patients with treatment-related AE",[1],1
same,"Nausea, patients with treatment-related AE",[1],3
same,"Pain, patients with treatment-related AE",[1],2
same,"Paraestesia, patients with treatment-related AE",[1],1
same,"Rash, patients with treatment-related AE",[1],2
same,"↑B-bilirubin, patients with treatment-related AE",[1],2
same,"↑B-lactate, patients with treatment-related AE",[1],1
same,"↓B-hemoglobin, patients with treatment-related AE",[1],2
same,"↓B-lymphocytes, patients with treatment-related AE",[1],3
same,"↓B-neutrophils, patients with treatment-related AE",[1],3
same,"↓B-thrombocytes, patients with treatment-related AE",[1],3
same,"Chills, patients with treatment-related AE",[2],1
same,"Hypertension, patients with treatment-related AE",[2],1
same,"↑B-lactate, patients with treatment-related AE",[2],1
same,"↓B-lymphocytes, patients with treatment-related AE",[2],2
same,"↓B-neutrophils, patients with treatment-related AE",[2],3
same,"Alopecia, patients with treatment-related AE",[3],2
same,"Candidiasis, patients with treatment-related AE",[3],1
same,"Diarrhea, patients with treatment-related AE",[3],3
same,"Dysgeusia, patients with treatment-related AE",[3],1
same,"Fatigue, patients with treatment-related AE",[3],1
same,"Nail disorder, patients with treatment-related AE",[3],1
same,"Nausea, patients with treatment-related AE",[3],3
same,"Oedema, patients with treatment-related AE",[3],1
same,"Paraestesia, patients with treatment-related AE",[3],2
same,"Rash, patients with treatment-related AE",[3],2
same,"Stomatitis, patients with treatment-related AE",[3],1
same,"↑B-bilirubin, patients with treatment-related AE",[3],1
same,"↓B-hemoglobin, patients with treatment-related AE",[3],1
same,"↓B-neutrophils, patients with treatment-related AE",[3],1
same,"Paraestesia, patients with treatment-related AE","100 mg SCO-101 (cohort 2, 3 patients) + Gem/Nab, grade ≥ 3",1
same,"Alopecia, patients with treatment-related AE",[4],2
same,"Athralgia, patients with treatment-related AE",[4],1
same,"Candidiasis, patients with treatment-related AE",[4],1
same,"Constipation, patients with treatment-related AE",[4],1
same,"Diarrhea, patients with treatment-related AE",[4],3
same,"Fatigue, patients with treatment-related AE",[4],2
same,"Headache, patients with treatment-related AE",[4],1
same,"Jaundice, patients with treatment-related AE",[4],1
same,"Nausea, patients with treatment-related AE",[4],2
same,"Pain, patients with treatment-related AE",[4],1
same,"Rash, patients with treatment-related AE",[4],1
same,"Stomatitis, patients with treatment-related AE",[4],2
same,"TTP, patients with treatment-related AE",[4],1
same,"Vomitting, patients with treatment-related AE",[4],2
same,"↑B-bilirubin, patients with treatment-related AE",[4],2
same,"↓B-hemoglobin, patients with treatment-related AE",[4],4
same,"↓B-neutrophils, patients with treatment-related AE",[4],1
same,"↓B-thrombocytes, patients with treatment-related AE",[4],1
same,"Fatigue, patients with treatment-related AE",[5],1
same,"Jaundice, patients with treatment-related AE",[5],1
same,"TTP, patients with treatment-related AE",[5],1
same,"↑B-bilirubin, patients with treatment-related AE",[5],1
same,"↓B-hemoglobin, patients with treatment-related AE",[5],2
same,blood bilirubin in the DLT case,"150 mg SCO-101, one patient",24 µmol/L
same,"Alopecia, patients with treatment-related AE",[6],4
same,"Constipation, patients with treatment-related AE",[6],1
same,"Diarrhea, patients with treatment-related AE",[6],2
same,"Dizziness, patients with treatment-related AE",[6],1
same,"Dysgeusia, patients with treatment-related AE",[6],1
same,"Fatigue, patients with treatment-related AE",[6],4
same,"Headache, patients with treatment-related AE",[6],1
same,"Jaundice, patients with treatment-related AE",[6],1
same,"Loss of appetite, patients with treatment-related AE",[6],2
same,"Nausea, patients with treatment-related AE",[6],3
same,"Oedema, patients with treatment-related AE",[6],1
same,"Pain, patients with treatment-related AE",[6],2
same,"Paraestesia, patients with treatment-related AE",[6],1
same,"Rash, patients with treatment-related AE",[6],2
same,"Stomatitis, patients with treatment-related AE",[6],4
same,"Vomitting, patients with treatment-related AE",[6],1
same,"↑B-bilirubin, patients with treatment-related AE",[6],4
same,"↓B-hemoglobin, patients with treatment-related AE",[6],3
same,"↓B-neutrophils, patients with treatment-related AE",[6],1
same,"↓B-thrombocytes, patients with treatment-related AE",[6],2
same,"↓B-neutrophils, patients with treatment-related AE","200 mg SCO-101 (cohort 4, 6 patients) + Gem/Nab, grade ≥ 3",1
same,"Candidiasis, patients with treatment-related AE",[7],1
same,"Constipation, patients with treatment-related AE",[7],1
same,"Dysgeusia, patients with treatment-related AE",[7],1
same,"Fatigue, patients with treatment-related AE",[7],2
same,"Jaundice, patients with treatment-related AE",[7],1
same,"Nausea, patients with treatment-related AE",[7],2
same,"Paraestesia, patients with treatment-related AE",[7],3
same,"Rash, patients with treatment-related AE",[7],1
same,"↑B-bilirubin, patients with treatment-related AE",[7],2
same,"↓B-hemoglobin, patients with treatment-related AE",[7],1
same,"↓B-neutrophils, patients with treatment-related AE",[7],1
same,"↓B-thrombocytes, patients with treatment-related AE",[7],2
same,"↓B-neutrophils, patients with treatment-related AE",[8],1
same,"↓B-thrombocytes, patients with treatment-related AE",[8],2
same,cases of clinical jaundice associated with bilirubin elevation,"22 patients, all dose levels",three
same,patients with SAEs (nineteen SAEs),"22 patients, all dose levels",11 patients
same,suspected unexpected serious adverse reactions (SUSARs),"22 patients, all dose levels",No suspected unexpected serious adverse reactions
same,cases with elevation of blood bilirubin,[9],55%
same,patients with a SCO-101-related AE grade 4 (thrombocytopenia),[9],9%
same,maximum tolerated dose (MTD),"SCO-101 daily for 6 days, bi-weekly schedule, with 80% dose of Gem and Nab, PDAC patients",200 mg
same,"dose-limiting toxicities (DLTs), first cycle","dose level 3, 150 mg SCO-101, six patients, with Gem and Nab",One
same,"dose-limiting toxicities (DLTs), first cycle","dose level 4, 200 mg SCO-101, with Gem and Nab",No DLTs
same,"dose-limiting toxicities (DLTs), first cycle","dose level 5, 250 mg SCO-101, thrombocytopenia AE grade 4, with Gem and Nab",two
same,time to resolution of bilirubin elevation,not accompanied by biochemical hepatotoxicity,≤ 1 week
same,SAEs deemed related to SCO-101,"of nineteen SAEs, transiently increased blood bilirubin AE grade 3 at 150 mg SCO-101",one
same,"Alopecia, patients with treatment-related AE",[10],10
same,"Athralgia, patients with treatment-related AE",[10],2
same,"Candidiasis, patients with treatment-related AE",[10],3
same,"Chills, patients with treatment-related AE",[10],1
same,"Constipation, patients with treatment-related AE",[10],3
same,"Diarrhea, patients with treatment-related AE",[10],11
same,"Dizziness, patients with treatment-related AE",[10],2
same,"Dysgeusia, patients with treatment-related AE",[10],3
same,"Fatigue, patients with treatment-related AE",[10],12
same,"Headache, patients with treatment-related AE",[10],3
same,"Hypertension, patients with treatment-related AE",[10],1
same,"Jaundice, patients with treatment-related AE",[10],3
same,"Loss of appetite, patients with treatment-related AE",[10],2
same,"Nail disorder, patients with treatment-related AE",[10],2
same,"Nausea, patients with treatment-related AE",[10],13
same,"Oedema, patients with treatment-related AE",[10],2
same,"Pain, patients with treatment-related AE",[10],5
same,"Paraestesia, patients with treatment-related AE",[10],7
same,"Rash, patients with treatment-related AE",[10],8
same,"Stomatitis, patients with treatment-related AE",[10],7
same,"TTP, patients with treatment-related AE",[10],1
same,"Vomitting, patients with treatment-related AE",[10],3
same,"↑B-lactate, patients with treatment-related AE",[10],1
same,"↓B-hemoglobin, patients with treatment-related AE",[10],11
same,"↓B-lymphocytes, patients with treatment-related AE",[10],3
same,"↓B-neutrophils, patients with treatment-related AE",[10],7
same,"↓B-thrombocytes, patients with treatment-related AE",[10],8
same,"Chills, patients with treatment-related AE",[11],1
same,"Fatigue, patients with treatment-related AE",[11],1
same,"Hypertension, patients with treatment-related AE",[11],1
same,"Jaundice, patients with treatment-related AE",[11],1
same,"Paraestesia, patients with treatment-related AE",[11],1
same,"TTP, patients with treatment-related AE",[11],1
same,"↑B-lactate, patients with treatment-related AE",[11],1
same,"↓B-hemoglobin, patients with treatment-related AE",[11],2
same,"↓B-lymphocytes, patients with treatment-related AE",[11],2
same,"↓B-neutrophils, patients with treatment-related AE",[11],5
same,"↓B-thrombocytes, patients with treatment-related AE",[11],2
